Patent US20240400521A1, “QUINAZOLINE COMPOUND, COMPOSITION, AND APPLICATION THEREOF” (BEIJING SCITECH-MQ PHARMACEUTICALS LIMITED, priority 2021, published 2024)
Like-named read-outs stand apart in the source and are kept apart here.

Assays:
HER2 kinase = biological target: T1, HER2 kinase (Homo sapiens, UniProt P04626); assay: HER2 kinase assay (ULight peptide / Eu-PT66 antibody detection); assay type: biochemical
T1 construct: purchased Carna Biosciences 08-016
Excerpt: Reagents and consumables: ULight™-labeled Ploy GT Peptide (Perkin Elmer, Cat. No. TRF-0100-M); ULight™-labeled JAK-1 (Try1023) Peptide (Perkin Elmer, Cat. No. TRF-0121-M); Eu-W1024-labeled Anti-Phosphotyrosine Antibody (PT66) (Perkin Elmer, Cat. No. AD0068); 10×Detection Buffer (Perkin Elmer, Cat. No. CR97-100); HER2 Kinase (Carna Biosciences, Cat. No. 08-016); EGFR kinase (Carna Biosciences, Cat. No. 08-115); HEPES (GIBCO, Cat. No. 15630-080); EGTA (Sigma, Cat. No. 03777-10G); EDTA (Sigma, Cat. No. EDS-100G); MgCl2 (Sigma, Cat. No. 63069-100ML); DTT (Sigma, Cat. No. 43816-10ML); Tween-20 (Sigma, Cat. No. P7949-100ML); DMSO (Life Science, Cat. No. 0231-500ML); 384-well plates (Perkin Elmer, Cat. No. 607290); multifunctional plate reader (Perkin Elmer, Cat. No. Envision)
Preparation of compound solution: The assay compound was dissolved in DMSO to form a 10 mM stock solution. Prior to use, the compound was diluted to 0.25 mM in DMSO (100 times the final concentration of the diluent) and then subjected to a 3-fold concentration gradient dilution to obtain a total of 11 concentrations. The solution was diluted with buffer to a diluent with 4× the final concentration when the drug was added.
HER2 kinase assay: buffer was prepared, and 40 nM 4× HER2 kinase solution, 40 μM 4× ATP solution, and 400 nM 4×ULight™-labeled Ploy GT Peptide substrate solution were prepared using the buffer. After the preparation was completed, the enzyme was mixed with different concentrations of compounds pre-prepared by dilution, and the mixture was left to stand at room temperature for 5 min. Each concentration was performed in duplicate. The corresponding substrate and ATP were added and the mixture was reacted at room temperature for 120 minutes (with negative and positive controls). After completion of the reaction, PT66 detection antibody was added. The mixture was incubated at room temperature for 60 minutes, and then detected by Envision.
Data Calculation: the reading of well and inhibition rate were calculated using Excel, wherein reading of well=10000*(well EU665 value)/(well EU615 value), and inhibition rate=[(reading of positive control well−reading of assay well)/(reading of positive control well−reading of negative control well)]*100%. Compound concentrations and corresponding inhibition rates were input into GraphPad Prism for processing to calculate IC50 values.

[1] = Pharmacokinetics in SD rats after single oral and intravenous administration; assay type: in vivo; settings: rat; for concentration at 0 hr: time point 0 hr; for concentration at 0.25 hr: time point 0.25 hr; for concentration at 0.5 hr: time point 0.5 hr; for concentration at 1 hr: time point 1 hr; for concentration at 2 hr: time point 2 hr; for concentration at 4 hr: time point 4 hr; for concentration at 7 hr: time point 7 hr
Experimental: (§1) In this assay, the pharmacokinetic characteristics and ability to penetrate the blood-brain barrier of the compounds of the present application were assayed after administration of some of the compounds of the present application to SD rats by single oral administration and intravenous injection.
(§2) • 1. Intravenous (IV) injection group: an appropriate amount of the assay compound was weighed, and completely dissolved in an appropriate volume of vehicle (DMSO/Solutol/H2O=5/10/85 V/V/V with 2 times mole of HCl). The mixture was stirred, vortexed and/or sonicated. Once a solution was obtained, the vehicle was gradually added to a final volume to reach the target concentration. The solution was vortexed, and sonicated to obtain a homogeneous solution. The solution was filtered through a 0.22 μm PVDF membrane. • 2. Oral (PO) group: an appropriate amount of the assay compound was weighed, and completely dissolved in an appropriate volume of vehicle (DMSO/Solutol/H2O=5/10/85 V/V/V with 2 times mole of HCl). The mixture was stirred, vortexed and/or sonicated. Once a solution was obtained, the vehicle was gradually added to a final volume to reach the target concentration. The solution was vortexed, and sonicated to obtain a homogeneous solution. (iii) Administration and Sampling of Rats
(§3) Meanwhile, the IV group was not fasted and the PO group was fasted overnight (>12 hrs) and given food 2 hrs after drug administration. All animals had free access to water. The dosing regimen and pharmacokinetic sampling regimen are given in Table 6 and Table 7 below, respectively.
(§4) Rats were administered according to the above regimen, and blood and brain tissue samples were collected and processed at predetermined time points (collection and processing were performed according to conventional methods in the art).
(§5) Brains were weighed and homogenized by adding 4-fold homogenizing solution (acetonitrile/water=1/1). Six times volume of acetonitrile was added respectively to the whole blood samples and brain homogenate. The mixture was vortexed for 1 min and then centrifuged at 4° C., 4500 rpm for 15 min. The supernatant was diluted 2-fold with ultra-pure water, and the samples were analyzed by LC/MS.
Pharmacokinetic parameters were calculated using WinNonlin software. The following pharmacokinetic parameters were calculated if appropriate plasma drug concentration-time data were available: CL (clearance); Vd (apparent volume of distribution); T1/2 (elimination half-life time); Cmax (peak concentration); Tmax (time to peak); AUC (area under plasma drug concentration-time curve); MRT (mean retention time); F % (bioavailability).

[2] = Ability to penetrate the blood-brain barrier: brain and whole blood concentration in SD rats; assay type: in vivo; settings: rat
Experimental: as §1, §2, §3, §4, §5

[3] = SD, plasma, IV 3 mg/kg, read-out: Plasma drug concentration
[4] = SD, plasma, PO 10 mg/kg, read-out: Plasma drug concentration

T1 sequence (P04626 23-1255): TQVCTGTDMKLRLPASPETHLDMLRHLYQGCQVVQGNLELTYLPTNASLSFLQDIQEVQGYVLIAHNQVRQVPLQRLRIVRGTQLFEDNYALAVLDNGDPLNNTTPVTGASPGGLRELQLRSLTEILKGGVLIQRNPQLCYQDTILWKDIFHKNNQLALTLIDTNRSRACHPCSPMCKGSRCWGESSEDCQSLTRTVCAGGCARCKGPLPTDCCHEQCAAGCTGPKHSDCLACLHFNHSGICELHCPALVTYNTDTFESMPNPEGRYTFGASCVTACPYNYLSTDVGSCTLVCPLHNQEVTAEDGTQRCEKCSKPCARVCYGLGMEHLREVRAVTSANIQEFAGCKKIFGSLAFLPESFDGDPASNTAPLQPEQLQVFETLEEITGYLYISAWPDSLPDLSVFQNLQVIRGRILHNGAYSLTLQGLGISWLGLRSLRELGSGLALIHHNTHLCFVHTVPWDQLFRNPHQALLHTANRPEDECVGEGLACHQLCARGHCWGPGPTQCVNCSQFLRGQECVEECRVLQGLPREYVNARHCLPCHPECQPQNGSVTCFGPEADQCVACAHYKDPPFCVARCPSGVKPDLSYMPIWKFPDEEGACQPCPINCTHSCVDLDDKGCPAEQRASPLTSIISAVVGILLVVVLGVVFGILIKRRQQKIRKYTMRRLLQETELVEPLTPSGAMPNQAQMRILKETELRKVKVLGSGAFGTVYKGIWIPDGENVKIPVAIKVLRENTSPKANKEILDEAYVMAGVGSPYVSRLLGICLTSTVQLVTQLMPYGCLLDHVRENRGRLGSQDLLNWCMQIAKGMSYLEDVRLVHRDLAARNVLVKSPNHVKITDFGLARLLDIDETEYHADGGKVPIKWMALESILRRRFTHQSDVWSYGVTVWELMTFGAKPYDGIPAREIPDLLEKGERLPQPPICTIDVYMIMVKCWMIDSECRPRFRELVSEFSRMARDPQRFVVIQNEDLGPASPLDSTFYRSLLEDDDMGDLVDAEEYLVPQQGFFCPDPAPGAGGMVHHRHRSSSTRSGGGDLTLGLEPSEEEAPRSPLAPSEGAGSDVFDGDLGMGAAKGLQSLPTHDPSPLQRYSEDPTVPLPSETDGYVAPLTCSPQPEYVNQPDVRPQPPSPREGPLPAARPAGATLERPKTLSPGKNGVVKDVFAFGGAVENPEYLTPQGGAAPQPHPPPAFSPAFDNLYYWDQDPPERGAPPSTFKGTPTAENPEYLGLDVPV

IC50 (HER2 kinase): 100 to 1000 nM
AUC(0-inf) ([1]; SD, plasma, IV 3 mg/kg): 724 ± 105 ng·h/mL
AUC(0-t) ([1]; SD, plasma, IV 3 mg/kg): 709 ± 96 ng·h/mL
Vd ([1]; SD, plasma, IV 3 mg/kg): 8.76 ± 0.67 L/kg
half-life ([1]; SD, plasma, IV 3 mg/kg): 1.45 ± 0.09 h
concentration at 0 hr [1, 3]: 0 ng/mL
concentration at 0.083 hr ([1]; SD, plasma, IV 3 mg/kg, time point 0.083 hr, read-out: Plasma drug concentration): 888 ± 106 ng/mL
concentration at 0.25 hr [1, 3]: 494 ± 121 ng/mL
concentration at 0.5 hr [1, 3]: 365 ± 48 ng/mL
concentration at 1 hr [1, 3]: 175 ± 23 ng/mL
concentration at 2 hr [1, 3]: 78.2 ± 28.7 ng/mL
concentration at 4 hr [1, 3]: 18.8 ± 8.7 ng/mL
concentration at 7 hr [1, 3]: 7.05 ± 3.77 ng/mL
AUC(0-inf) ([1]; SD, plasma, PO 10 mg/kg): 1780 ± 178 ng·h/mL
AUC(0-t) ([1]; SD, plasma, PO 10 mg/kg): 1730 ± 170 ng·h/mL
Cmax ([1]; SD, plasma, PO 10 mg/kg): 281 ± 73 ng/mL
Tmax ([1]; SD, plasma, PO 10 mg/kg): 1 h
bioavailability ([1]; SD, plasma, PO 10 mg/kg): 73.6 ± 7.4%
half-life ([1]; SD, plasma, PO 10 mg/kg): 3.17 ± 1.22 h
concentration at 0 hr [1, 4]: 0 ng/mL
concentration at 0.25 hr [1, 4]: 83.2 ± 29.9 ng/mL
concentration at 0.5 hr [1, 4]: 227 ± 58 ng/mL
concentration at 1 hr [1, 4]: 281 ± 73 ng/mL
concentration at 2 hr [1, 4]: 249 ± 74 ng/mL
concentration at 4 hr [1, 4]: 77.7 ± 7.3 ng/mL
concentration at 7 hr [1, 4]: 72.6 ± 25.5 ng/mL
concentration at 24 hr ([1]; SD, plasma, PO 10 mg/kg, time point 24 hr, read-out: Plasma drug concentration): 14.2 ± 19.7 ng/mL
Cl_obs ([1]; IV 3 mg/kg): 70.0 ± 9.5 mL/min/kg
Kp at 2 hours ([2]; SD, brain/blood, PO 10 mg/kg, 2 hours after administration, read-out: Brain/blood ratio): 3.06
concentration at 2 hours ([2]; SD, brain, PO 10 mg/kg, 2 hours after administration, read-out: Brain concentration): 1470 ng/g
concentration at 2 hours ([2]; SD, plasma, PO 10 mg/kg, 2 hours after administration, read-out: Plasma drug concentration): 480 ng/mL
Structure (SMILES): COc1c(NC(=O)/C=C/CN(C)C)ccc2ncnc(Nc3cccc(Cl)c3F)c12 [Example 1, (E)-N-(4-((3-chloro-2-fluorophenyl)amino)-5-methoxyquinazolin-6-yl)-4-(dimethylamino)but-2-enamide]
ability to penetrate the blood-brain barrier (in words) [2]: excellent ability to penetrate the blood-brain barrier
